The values that follow are results of earlier work, collected in US20240093147A1, “GLIA-LIKE CELLS DIFFERENATIATED FROM SOMATIC CELLS, PREPARATION METHOD THEREFOR, COCKTAIL COMPOSITION FOR PREPARING SAME, CELL THERAPEUTIC AGENT FOR PREVENTING OR TREATING NEUROLOGICAL DISORDERS, COMPRISING SAME, AND METHOD FOR PREVENTING AND TREATING NEUROLOGICAL DISORDERS BY ADMINISTERING SAME” (CELLAPEUTICS BIO, priority 2019, published 2024).

The conditions of data set [1]: forskolin, cAMP agonist.
The next data set has as its system HDAC. Conditions: valproic acid, HDAC inhibitor.

As to `C=C[C@@]1(C)CC(=O)[C@]2(O)[C@@]3(C)[C@@H](O)CCC(C)(C)[C@@H]3[C@H](O)[C@H](OC(C)=O)[C@@]2(C)O1` [Forskolin, forskolin], the IC50 in data set [1] was 500 nM. Turning to `CCCC(CCC)C(=O)O` [Valproic Acid, valproic acid], the IC50 with HDAC was 2 mM.
